Experimental data published in patent US10420734B2, “Method of treating cancer using selective estrogen receptor modulators” (Duke University, priority 2014, dated 2019).
Entries after “also recorded” stand apart in the source; their conditions may differ.

Columns and labels:
ESR1 target genes = test: ESR1 target gene expression profile in MCF7 cells; format: cell-based; settings: 24 hours
Procedure: A recent extensive microarray analysis has identified “sentinel” subsets of ER-responsive genes that can differentiate between ER agonists, SERMs and SERDs. […] MCF7 breast cancer cells were treated 24 hours with RAD1901 (0-1 μM) in the presence or absence of 17β-estradiol (1 nM). RNA isolation and the analysis of the expression of target genes Anterior gradient protein 2 (AGR2) and KCNK6 was conducted as in Example 3.
The expression of ESR1 target genes responsive to (FIG. 10A) agonists, (FIG. 10B) primarily SERMs, or (FIG. 10C) SERMs and agonists was analyzed as in FIG. 5. […] Significant target gene regulation (*p<0.05) as compared to the vehicle control was detected by 2 way ANOVA followed by Fisher's LSD (Graphpad Prism 6). […] Interaction of ESR1 with the Gal4DBD peptide constructs was detected through activation of a Gal4-responsive luciferase reporter construct and was normalized to detected β-galactosidase activity expressed in a constitutive manner using a second vector. Normalized response was expressed as fold increase over the detected level of interaction between Gal4DBD alone and ESR1-VP16 in the absence of ligand (Veh). For FIG. 10E, the effect of SERMs and SERDs (10^−6 M) on the proliferation of MCF7 cells in response to E2 (10^−9 M) or insulin (2×10^−9 M) was evaluated as in FIG. 5. […]

ESR1 = target: T1, ESR1 (Homo sapiens, UniProt P03372); test: Mammalian two-hybrid conformational profiling of ESR1 with peptide probes in SKBR3 cells; format: cell-based; set-up: expressed in transfected cells; host or cells: SKBR3
T1 sequence (P03372 1-595): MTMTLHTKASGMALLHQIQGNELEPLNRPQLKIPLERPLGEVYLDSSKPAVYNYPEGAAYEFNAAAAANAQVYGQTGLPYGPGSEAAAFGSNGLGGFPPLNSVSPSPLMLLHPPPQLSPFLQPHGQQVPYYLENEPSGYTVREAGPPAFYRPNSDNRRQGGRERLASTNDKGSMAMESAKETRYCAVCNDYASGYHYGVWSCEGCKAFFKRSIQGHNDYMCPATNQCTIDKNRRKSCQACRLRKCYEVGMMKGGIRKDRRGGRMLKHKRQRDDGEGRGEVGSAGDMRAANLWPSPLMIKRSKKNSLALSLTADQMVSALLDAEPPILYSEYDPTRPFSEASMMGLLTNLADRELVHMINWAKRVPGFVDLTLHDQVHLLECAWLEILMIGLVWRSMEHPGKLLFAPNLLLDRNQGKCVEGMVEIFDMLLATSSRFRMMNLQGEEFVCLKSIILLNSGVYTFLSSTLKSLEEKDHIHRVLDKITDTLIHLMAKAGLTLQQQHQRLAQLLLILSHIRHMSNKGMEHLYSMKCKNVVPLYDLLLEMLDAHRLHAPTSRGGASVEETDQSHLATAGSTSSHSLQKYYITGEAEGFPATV
Procedure: Triplicate wells of SKBR3 cells were transfected (Lipofectin per manufacturer's instructions) with plasmids expressing ERα fused to VP16 together with Gal4DBD alone (control) or fused to ER interacting peptides noted on the horizontal axis. Cells were then treated with RAD1901 (1 nM-1 μM) or the indicated ER ligands (100 nM). Interaction of ERα with the Gal4DBD peptide constructs was detected through activation of a Gal4 responsive luciferase reporter construct and was normalized to detected β-galactosidase activity generated by a co-transfected constitutive expression vector. Ligand classes recognized by each probe are indicated below the graph.
Mammalian 2-hybrid analysis of VP16-ESR1 with conformation-selective peptide probes was performed essentially as previously described (Wardell et al., (2012) Mol Endocrinol 26 (7):1235-1248).
The expression of ESR1 target genes responsive to (FIG. 10A) agonists, (FIG. 10B) primarily SERMs, or (FIG. 10C) SERMs and agonists was analyzed as in FIG. 5. Relative changes of these and additional target genes designed to evaluate dose dependent response to RAD1901 are presented in FIG. 11. Significant target gene regulation (*p<0.05) as compared to the vehicle control was detected by 2 way ANOVA followed by Fisher's LSD (Graphpad Prism 6). […] Triplicate wells of SKBR3 cells were transfected with plasmids expressing ESR1 fused to VP16 together with Gal4DBD alone (control) or Gal4DBD fused to ESR1 interacting peptides noted on the horizontal axis. Cells were then treated with the indicated ESR1 ligands (10^−7 M unless otherwise indicated). Interaction of ESR1 with the Gal4DBD peptide constructs was detected through activation of a Gal4-responsive luciferase reporter construct and was normalized to detected β-galactosidase activity expressed in a constitutive manner using a second vector. Normalized response was expressed as fold increase over the detected level of interaction between Gal4DBD alone and ESR1-VP16 in the absence of ligand (Veh). For FIG. 10E, the effect of SERMs and SERDs (10^−6 M) on the proliferation of MCF7 cells in response to E2 (10^−9 M) or insulin (2×10^−9 M) was evaluated as in FIG. 5. Statistically similar treatments (2-way ANOVA followed by Bonferroni comparison) are indicated by letters. […] The expression of ESR1 target genes responsive to (A) agonists, (B) primarily SERMs, or (C) SERMs and agonists was analyzed using RT qPCR following RNA isolation. mRNA expression was normalized (ΔΔCT analysis) to the similarly detected 36B4 housekeeping. The profiles presented in dendogram format were analyzed with the Ward hierarchical clustering algorithm (JMP 11) using standardized data.

interaction of αII peptide (hinge region surface) (ESR1): significant interaction
interaction with peptides reporting ESR1 structures adopted upon binding tamoxifen (aβV) or ICI (βI2) (ESR1): No interaction was observed
interaction with peptides that report on agonist activity (ASC1 and PGC1) (ESR1): decreased interaction
SMILES: CCNCCc1ccc(CN(CC)c2cc(OC)ccc2[C@@H]2CCc3cc(O)ccc3C2)cc1 [RAD1901, (R)-6-{2-{ethyl[4-(2-ethylaminoethyl)benzyl]amino}-4-methoxyphenyl}-5,6,7,8-tetrahydronaphthalen-2-ol]
regulation of ER transactivation of target genes AGR2 and KCNK6 (ESR1 target genes; RAD1901 0-1 μM, presence or absence of 17β-estradiol 1 nM): dose dependent agonist/antagonist regulation
expression pattern of ESR1 target genes (agonist-, SERM-, SERM/agonist-responsive) (ESR1 target genes; RAD1901 10^-9-10^-6 M): biphasic response
ESR1 conformation / peptide interaction profile (ESR1): induces a unique conformation of ERα; also recorded: completely distinct from any other known ligand
